Test results: patent EP2197279B1, “C10-SUBSTITUTED CAMPTOTHECIN ANALOGS” (BIONUMERIK PHARMACEUTICALS, INC., priority 2007, dated 2009)
pIC50: −log10 of the molar value.

Tests used:
A2780/DX5 cells = test: Sulforhodamine B (SRB) cytotoxicity assay in A2780/DX5 cells; type: cell-based; settings: for IC50 Ratio: A2780/DX5 versus A2780/WT; for pIC50: SRB assay
Procedure: (§1) Each of the testing conditions used in this study in both A2780/WT (wild-type) and A2780/DX5 cells were repeated in five to fifteen experiments that were performed on separate days. Each experiment consisted of one microtiter plate with at least eight individual assays of a given drug treatment condition on the plate. The sulforhodamine B (SRB) assay was used to assess cytotoxicity and absorbance at 570 nm (A570) in order to calculate the percentage of cell control (or percent cell survival) for the various treatment conditions in the plate wells.
(§2) Roswell Park Memorial Institute (RPMI 1640) medium, fetal bovine serum (FBS), and L-glutamine were purchased from Gibco BRL. Drugs were dissolved in sterile dimethylsulfoxide (DMSO), from American Type Culture Collection (ATCC) for stock solutions (2.5 to 5.0 mM). Subsequent dilutions were made using cell culture medium (prior to adding the drug to cells). SRB was purchased from Sigma and dissolved in 1.0% acetic acid. Trichloroacetic acid was purchased from VWR International.
(§3) Cells were manipulated in a Class IIA/B3 Biological Safety Cabinet (Forma Scientific) and maintained at 37°C in a humidified atmosphere containing 5% CO2 in a water-jacketed cell culture incubator (Forma Scientific). Cells were counted using a Coulter-Zl counter (Beckman-Coulter). Following drug treatment, plates were washed using a Biomek 2000 station (Beckman) and, following exposure to SRB dye, plates were washed using an automated plate washer (Model EL404, Bio-Tek Instruments). Percentage of control was correlated to A570 values and determined using a Model EL800 plate reader (Bio-Tek Instruments).
(§4) Population doubling times for the two cell lines used in this study encompassed a total of five cell doublings corresponding to approximately 5 days for A2780/WT and A2780/DX5 cells. A2780/WT and A2780/DX5 cells were cultured in RPMI 1640 medium supplemented with 10% fetal bovine serum and 1 mM of L-glutamine. Both cell lines were maintained as monolayered cultures in T-25 or T-75 flasks and then seeded to microtiter plate wells for experiments described herein. Prior to SRB assays, cell viability was monitored by evaluation of microtiter plate wells. Dead cells detach and float while living cells remain attached to the bottom of the cell well.
(§5) The sulforhodamine B (SRB) cytotoxicity assay (see, Skehan P, et al., New colorimetric cytotoxicity assay for anticancer-drug screening. J. Natl. Cancer Inst. 82: 1107-1112 (1990)) was used to determine the cytotoxic effects of BNP1350, SN-38, topotecan, 9-NH2-CPT, and 9-NO2-CPT on cell growth in vitro. Briefly, after the medium was aspirated from individual plate wells, trichloroacetic acid (100 µL of 10.0% solution) was added to each well, and the plates were incubated at 4°C for at least 1 hour. The plates were washed five-times with water using an automated microplate washer (Model EL 404, Bio-Tek Instruments), SRB solution (100 µL of 0.4 grams SRB dissolved in 100 mL 1.0% acetic acid) was added, and plates remained at room temperature for 15 minutes. The plates were then washed five-times using acetic acid (1.0 percent), air dried, and bound dye was solubilized in Tris base (150 µL, 10 mM). Plates were agitated (gently) for 5 minutes and the absorbance values of the SRB dye-protein adduct at a 570 nm wavelength (A570) were determined using an automated microtiter plate reader equipped with an A570 filter (Model EL800, BioTek Instruments). Table VII. Summary of Cytotoxicity Experiments in A2780/WT and DX5 Cells

[1] = tested on: A2780/WT (wild-type) cells; test: Sulforhodamine B (SRB) cytotoxicity assay in A2780/WT cells; type: cell-based
Procedure: as §1, §2, §3, §4, §5

human plasma proteins = test: Percent of free camptothecin analogs in human plasma (dialysis, HPLC); type: in vitro ADME; settings: 100 nM Compound Concentrations
Procedure: Stocks of various camptothecin analogs were prepared in DMSO. […] Optimum HPLC detection conditions for each camptothecin analog were developed using traditional HPLC methods. Table VIII. Percent of Free Camptothecin Analogs in Human Plasma (100 nM Compound Concentrations)

[2] = over the first 48 hours, IV camptothecin sodium; cited from earlier work
[3] = tested on: Angiogenesis was induced by fibroblast growth factor; settings: dose levels of 210 mg/kg; cited from earlier work
[4] = clinical studies in Japan alone; cited from earlier work
[5] = cited from earlier work

Row | Compound | IC50 Ratio (A2780/DX5 cells) | pIC50 (A2780/DX5 cells) | pIC50 [1] | Percent of Free CPTs (human plasma proteins) [%] | other results
1 | 7-(2'-Trimethylsilanyl) ethyl-10-(4-moroholinecarbonyloxy) camptothecin [Compound 12] | 2.1 | 6.87 | 7.18 |  | 
2 | 7-(2'-Trimethylsilanyl) ethyl-10-(ethoxycarbonylmethoxyl camptothecin [Compound 9] | 1.7 | 6.91 | 7.13 |  | 
3 | CC[C@@]1(O)C(=O)OCc2c1cc1n(c2=O)Cc2cc3ccccc3nc2-1 [CPT, (S)-4-Ethyl-4-hydroxy-1H-pyrano[3',4':6,7]indolizino[1,2-b]quinoline-3,14(4H,12H)-dione] |  |  |  | 0 | mean urine recovery of CPT [2]: 17.4%
4 | CCc1c2c(nc3ccc(OC(=O)N4CCC(N5CCCCC5)CC4)cc13)-c1cc3c(c(=O)n1C2)COC(=O)[C@]3(O)CC [CPT-11, 7-ethyl-10-[4-(1-piperidino)-1-piperidino] carbonyloxy camptothecin] |  |  |  |  | neovascularization [3]: significant reduction of neovascularization; patient deaths directly attributable to drug toxicity [4]: approximately 100
5 | CC[C@@]1(O)C(=O)OCc2c1cc1n(c2=O)Cc2c-1nc1ccc(OC)cc1c2CC[Si](C)(C)C [Compound 1, 7-(2'-Trimethylsilanyl) ethyl-10-methoxy camptothecin] | 1.3 | 7.66 | 7.77 | 3.5 | 
6 | CC[C@@]1(O)C(=O)OCc2c1cc1n(c2=O)Cc2c-1nc1ccc(OCOC)cc1c2CC[Si](C)(C)C [Compound 2, 7-(2'-Trimethylsilanyl) ethyl-10-methoxymethoxy camptothecin] | 1.5 | 7.19 | 7.36 |  | 
7 | CC[C@@]1(O)C(=O)OCc2c1cc1n(c2=O)Cc2c-1nc1ccc(OCCCO)cc1c2CC[Si](C)(C)C [Compound 3, 7-(2'-trimethylsilanyl) ethyl-10-(3'-hydroxypropoxy) camptothecin] | 2.5 | 7.42 | 7.82 | 6.8 | 
8 | CC[C@@]1(O)C(=O)OCc2c1cc1n(c2=O)Cc2c-1nc1ccc(OCCOC)cc1c2CC[Si](C)(C)C [Compound 4, 7-(2'-Trimethylsilanyl)ethyl-10-(2'-methoxyethoxy) camptothecin] | 1.0 | 7.15 | 7.15 | 6 | 
9 | CC[C@@]1(O)C(=O)OCc2c1cc1n(c2=O)Cc2c-1nc1ccc(OC(C)C)cc1c2CC[Si](C)(C)C [Compound 5, 7-(2'-Trimethylsilanyl) ethyl-10-isopropoxy camptothecin] | 1.2 | 6.99 | 7.06 |  | 
10 | CCOc1ccc2nc3c(c(CC[Si](C)(C)C)c2c1)C(O)n1c-3cc2c(c1=O)COC(=O)[C@]2(O)CC (stereo partly drawn) [Compound 6, 5-hydroxy-7-(2'-trimethylsilanyl) ethyl-10-ethoxy camptothecin] | 1.1 | 6.78 | 6.80 |  | 
11 | CC[C@@]1(O)C(=O)OCc2c1cc1n(c2=O)C(O)c2c-1nc1ccc(OCC(N)=O)cc1c2CC[Si](C)(C)C (stereo partly drawn) [Compound 7, 5-Hydroxy-7-(2'-trimethylsilanyl) ethyl-10-amidomethoxy camptothecin] |  | < 6.19 | 6.58 |  | 
12 | CC[C@@]1(O)C(=O)OCc2c1cc1n(c2=O)Cc2c-1nc1ccc(OC(=O)N(C)C)cc1c2CC[Si](C)(C)C [Compound 8, 7-(2'-trimethylsilanyl) ethyl-10-(dimethylcarbamoyloxy) camptothecin] | 1.1 | 7.21 | 7.26 | 6.4 | 
13 | CC[C@@]1(O)C(=O)OCc2c1cc1n(c2=O)Cc2c-1nc1ccc(OCC(N)=O)cc1c2CC[Si](C)(C)C [Compound 10, 7-(2'-Trimethylsilanyl) ethyl-10-(amidomethyloxy) camptothecin] | 11.8 | 6.40 | 7.47 | 25 | 
14 | CC[C@@]1(O)C(=O)OCc2c1cc1n(c2=O)Cc2c-1nc1ccc(OC(=S)N(C)C)cc1c2CC[Si](C)(C)C [Compound 13] | 2.0 | 6.64 | 6.93 |  | 
15 | CCOc1ccc2nc3c(c(CC[Si](C)(C)C)c2c1)Cn1c-3cc2c(c1=O)COC(=O)[C@]2(O)CC [Compound 14, 7-(2'-Trimethylsilanyl) ethyl-10-ethoxy camptothecin] | 1.2 | 7.76 | 7.85 |  | 
16 | CC[C@@]1(O)C(=O)OCc2c1cc1n(c2=O)Cc2c-1nc1ccc(OCC#N)cc1c2CC[Si](C)(C)C [Compound 15, 7-(2'-Trimethylsilanyl) ethyl-10-cyanomethoxy camptothecin] | 2.0 | 7.72 | 8.02 |  | 
17 | CCc1c2c(nc3ccc(O)cc13)-c1cc3c(c(=O)n1C2)COC(=O)[C@]3(O)CC [SN-38, 10-hydroxy-7-ethyl camptothecin] |  |  |  | 15 | 
18 | CC[C@@]1(O)C(=O)OCc2c1cc1n(c2=O)Cc2cc3c(CN(C)C)c(O)ccc3nc2-1 [Topotecan, 9-dimethylaminomethyl-10-hydroxy camptothecin] |  |  |  | 100 | 
19 | CC[C@@](O)(C(=O)O)c1cc2n(c(=O)c1CO)Cc1cc3ccccc3nc1-2 [carboxylate form of CPT] |  |  |  |  | reduction of anti-tumor activity ([5]; carboxylate form versus lactone): at least 10 fold; anti-tumor potency relative to the non-hydrolyzed lactone form of CPT ([5]; sodium hydroxide formulation, hydrolysed E-ring): approximately one-tenth or less
